PubChem BioAssay AID493211 (Johns Hopkins Ion Channel Center, 2011)
Activity calls are given as the source filed them.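 The calls were made as follows: active = switches on the TRPC4 calcium channel at some tested dose and gives a concentration response curve; inactive = the rest.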

biological target: TRPC4 (mouse), transient receptor potential cation channel C4; experiment: agonist potency at mouse TRPC4 – cell-based, HEK293 TRPC4/mu-opioid, Fluo-4 calcium flux, dose response (AID 493211); details: HEK293 TRPC4/mu-opioid cells, Fluo-4 calcium fluorescence ratio

| SMILES | EC50 |
| --- | --- |
| CN1CCN(c2ccc([N+](=O)[O-])c3cccnc23)CC1 | 9.12 nM |

same assay, conditions: HEK293 TRPC4/mu-opioid cells, Fluo-4 calcium fluorescence ratio; at 20 µM (top of the series)

| SMILES | fluorescence ratio, percent of baseline (100 = none) |
| --- | --- |
| CC(C)(C)OC(=O)N1CCN(c2ccc([N+](=O)[O-])c3cccnc23)CC1 | inactive |
| C[C@@H]1CN(c2ccc([N+](=O)[O-])c3cccnc23)[C@@H](C)CN1 | inactive |
| O=[N+]([O-])c1ccc(N2CCC3(CCc4ccccc43)CC2)c2ncccc12 | inactive |
| O=[N+]([O-])c1ccc(N2CCOc3ccccc32)c2ncccc12 | inactive |
| O=[N+]([O-])c1ccc(N2CCC2)c2ncccc12 | inactive |
| COC(=O)C1CCCN(c2ccc([N+](=O)[O-])c3cccnc23)C1 (stereo not drawn) | inactive |
| O=C1NCCC1Nc1ccc([N+](=O)[O-])c2cccnc12 (stereo not drawn) | inactive |
| O=[N+]([O-])c1ccc(N2CCN(c3ccncc3)CC2)c2ncccc12 | inactive |
| O=[N+]([O-])c1ccc(N2CCOCC2)c2ncccc12 | inactive |
| CC1CC(C)CN(c2ccc([N+](=O)[O-])c3cccnc23)C1 (stereo not drawn) | inactive |
| O=C1CC(Nc2ccc([N+](=O)[O-])c3cccnc23)CN1 (stereo not drawn) | inactive |
| N#Cc1ccccc1C1CCN(c2ccc([N+](=O)[O-])c3cccnc23)CC1 | inactive |
| O=[N+]([O-])c1ccc(N2CCN(c3ccccn3)CC2)c2ncccc12 | inactive |
| O=[N+]([O-])c1ccc(N2CCN(c3ccc(F)cc3F)CC2)c2ncccc12 | inactive |
| CCOC(=O)NC1CCN(c2ccc([N+](=O)[O-])c3cccnc23)CC1 | inactive |
| O=[N+]([O-])c1ccc(N2CCC3(C=Cc4ccccc43)CC2)c2ncccc12 | inactive |
| COc1ccccc1N1CCN(c2ccc([N+](=O)[O-])c3cccnc23)CC1 | inactive |
| C[C@H]1CCCN1c1ccc([N+](=O)[O-])c2cccnc12 | inactive |
| CCN(CC)c1ccc([N+](=O)[O-])c2cccnc12 | inactive |
| O=[N+]([O-])c1ccc(N2CCN(c3ncccn3)CC2)c2ncccc12 | inactive |
| N#Cc1ccccc1N1CCN(c2ccc([N+](=O)[O-])c3cccnc23)CC1 | inactive |
| COc1ccc(N2CCN(c3ccc([N+](=O)[O-])c4cccnc34)CC2)cc1 | inactive |
